Several values for one entry are separate records, joined by “and”; a condition that tells them apart may be missing. Equal values may be shown once.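 In this assay, cells in 96-well plates receive the compound at five concentrations for 48 hours. Endpoints are linearly interpolated between the surrounding concentrations. At the GI50, growth is halved. At the TGI there is no net growth.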 *1 amine or outer side, *2 acyl side, *3 side chain or, on linkers, in order; H or OH if unused. Where a SMILES comes first, the peptide text is derived from it. Bridges are numbered along the chain shown (N, C = ends). [ ]: non-standard residue; d: D form. The star is where a group is joined. ξ: configuration not given here. Phe(3,5-F2) = N[C@@H](Cc1cc(F)cc(F)c1)C(=O)O; ξThr(3S) = C[C@H](O[*:3])C(N[*:1])C(=O)[*:2]; Pro(4R-Me) = C[C@H]1CN[C@H](C(=O)O)C1; Pip = O=C(O)[C@@H]1CCCCN1; X1 = Cc1ccc(N*)c(F)c1; CO = O=C([*:1])[*:2]
System: MDA-MB-468 breast
Assay: NCI anticancer screen, dose series, 48 h

Row | Structure (SMILES) | GI50 | TGI
1 | CN(C)CCN1C(=O)c2cccc3cc(N)cc(c23)C1=O | 2.95 µM | 11.9 µM
2 | CCCCCCCCCCCC(c1ccccc1)[N+](C)(C)C (configuration not stated) | 0.257 µM | 1.35 µM
3 | c1ccc2[nH]c(-c3ccc(Nc4nc(N5CCCC5)nc5[nH]ncc45)cc3)nc2c1 | 0.277 µM | 1.21 µM
4 | O=C(O)CN(CCN(CC(=O)O)CC(=O)O)CCN(CC(=O)O)CC(=O)O | 4.03 µM | 16.4 µM
5 | Cc1ccc(NC(=O)c2ccoc2)cc1-c1ccc(C(=O)NCC2CC2)cc1 | 6.37 µM | > 25 µM
6 | CCN(Cc1ccccc1)c1ccc(/C=C2\COc3ccccc3C2=O)cc1 | 438 µM | > 1000 µM
7 | CC(=O)Nc1ccc(CC[C@H]2CCC/C=C/[C@@H]3C[C@H](O)C[C@H]3[C@H](O)/C=C/C(=O)O2)cc1 | 0.0213 µM | 0.0503 µM
8 | CN1CCN(c2cc(F)c(NC3=C(Cl)C(=O)c4ncccc4C3=O)c(F)c2)CC1 | 1.01 µM | 2.61 µM
9 | Cc1[nH]nc2ncc(C#Cc3cncc(C(=O)Nc4ccc(CN5CCN(C)CC5)c(C(F)(F)F)c4)c3)cc12 | 0.141 µM | 0.911 µM
10 | CN1CCN(c2ccc3nc(-c4[nH]ncc4Nc4ncnc5[nH]ccc45)[nH]c3c2)CC1 | 0.197 µM | 0.487 µM
11 | CCCN1CCC(Oc2cc(Nc3nc(Nc4cccc(F)c4C(N)=O)c4cc[nH]c4n3)c(OC)cc2Cl)CC1 | 0.537 µM | 1.35 µM
12 | CCCCCOC(=O)c1c(C)[nH]c(/C=C2\N=C(c3ccc[nH]3)C=C2OC)c1C | 0.0546 µM | 1.32 µM
13 | C=C(C)[C@@H]1CC[C@]2(C(=O)OC)CC[C@]3(C)[C@H](CC[C@@H]4[C@@](C)(CCc5nn[nH]n5)[C@H](C(=C)C)CC[C@]43C)[C@@H]12 | 13.8 µM | 36.4 µM
14 | CC(C)Cn1cnc2c(N)nc3ccccc3c21 | 12.4 µM | > 62.1 µM
15 | COc1cc(-c2csc(NC(=O)Nc3ccc(Cl)cc3)n2)cc(OC)c1OC | 2.96 µM | 9.35 µM
16 | Clc1cccc(-c2cc(-c3ccc4c(c3)OCCO4)[nH]n2)c1 | 10.9 µM | 57.8 µM
17 | Nc1nc(N)c2cc(S(=O)(=O)c3cccc(C(F)(F)F)c3)ccc2n1 | 2.34 µM | > 100 µM
18 | Cc1ccc(/C=C/C(=O)c2ccc(F)cc2)s1 | 2.97 µM | 16.4 µM
19 | Cc1ccc(NC(=O)N[C@@H](Cc2cc(F)cc(F)c2)C(=O)NC2C(=O)N3CCC[C@H]3C(=O)N3CCCC[C@H]3C(=O)N[C@@H](C)C(=O)N3C[C@H](C)C[C@H]3C(=O)O[C@H]2C)c(F)c1 (stereo partly drawn) ({X1-CO}-[Phe(3,5-F2)][ξThr(3S)]P[Pip]A[Pro(4R-Me)]; ester 2-C) | 0.174 µM and 0.0874 µM | –
20 | CN1CCC2(CC1)C(=O)Nc1cc(NC(=O)c3ccc4c(c3)C[C@@H]3C(C)(C)[C@H](O)[C@H](F)C[C@@]3(C)O4)ccc12 | 0.74 µM | 11.7 µM

Row | Structure (SMILES) | GI50 | TGI
21 | C=CCn1c(SCC(=O)Nc2ccc(C(=O)/C=C/c3cc(OC)c(OC)c(OC)c3)cc2)nnc1-c1cc(OC)c(OC)c(OC)c1 | 2.45 µM | 6.66 µM
22 | COc1cccc2c1C(=O)c1c(O)c3c(c(O)c1C2=O)C[C@@](O)(C(=O)CO)C[C@@H]3OC1CC(N2CCOCC2)C(O)C(C)O1 (some centres not stated) | 0.0369 µM | 0.216 µM
23 | N#CSc1c[nH]c2ccc(/C=C/C(=O)/C=C(O)/C=C/c3ccc4[nH]cc(SC#N)c4c3)cc12 | 2.06 µM | 6.67 µM
24 | C#C[C@]1(O)CC[C@H]2[C@@H]3CC=C4c5sc(Nc6cc(C)cc(C)c6)nc5CC[C@]4(C)[C@H]3CC[C@@]21C | 2.54 µM | 8.69 µM
25 | COc1ccc(-c2nc(-c3nc4cc(Cl)c(Cl)cc4[nH]3)c3ccccn23)cc1 | 5.04 µM | > 100 µM
26 | COc1ccc(-c2nn3ncccc3c2-c2ccnc(Nc3ccc(F)c(F)c3)n2)cc1 | 6 µM | > 18.9 µM
27 | CCCCCCCCCCCC1=NC(C)(C)CN1C(C)C | 1.66 µM | 3.8 µM
28 | CC[C@@H]1C(=O)N(C)c2cnc(Nc3ccc(C(=O)NC4CCC(N5CCN(CC6CC6)CC5)CC4)cc3OC)nc2N1C(C)C (some centres not stated) | 0.00331 µM and < 0.01 µM | 0.121 µM
29 | C=CC(=O)N1CCN([C@@H](CC2CC2)c2ccc([C@H](C)Nc3ncc4c(n3)N(CC)C(=O)OC4)cc2)CC1 | 3.3 µM | 13.8 µM
30 | CCOc1ccc2nc3cc(N)ccc3c(N)c2c1 | 0.268 µM and 0.135 µM | 0.972 µM and 0.493 µM
31 | CN1CCN(CCCOC(=O)c2c3c(n4ccccc24)C(=O)c2ncccc2C3=O)CC1 | 1.88 µM | 20.6 µM
32 | Cc1ccc(-c2nnc(SCc3ccc(O)c4ncccc34)o2)cc1 | 1.88 µM | > 100 µM
33 | COCCn1c(Nc2ccc(C(=O)NO)cc2)nc2ccccc21 | 3.43 µM | 16 µM
34 | Clc1ccc2c(NC3CCC(NC4CCCCC4)CC3)ccnc2c1 (configuration not stated) | 1.68 µM | 8.1 µM
35 | CCn1c(-c2nonc2N)nc2cnc(Oc3cccc(NC(=O)c4ccc(OCCN5CCOCC5)cc4)c3)cc21 | 1.13 µM | 19.9 µM
36 | Cc1cc(NC(=O)NCCCOc2ccc(N3C(N)=NC(N)=NC3(C)C)cc2Cl)ccc1S(=O)(=O)F | 0.638 µM | 19.7 µM
37 | Clc1ccc2c(NCCCCNc3nc(N4CCOCC4)nc4ccccc34)ccnc2c1 | 2.82 µM | 7.97 µM
38 | COc1ccc(C2c3cc4c(cc3OC(N3CCOCC3)C2C)OCO4)cc1OC (configuration not stated) | 7.56 µM | > 100 µM
39 | O=C(Nc1ccccc1/C=C/c1n[nH]c2ccccc12)c1ccccc1 | 6.35 µM | 20.4 µM

Reference: PubChem BioAssay (NCI)
